Laboratory results published in ChEMBL document CHEMBL5042512 (Eur J Med Chem, 2022).

Tests used:
Format in all cases: functional, cell-based
HCT-116 = experiment: Antiproliferative activity against human HCT-116 cells assessed as cell growth inhibition measured after 48 hrs by CCK8 assay; conditions: HCT-116, 48 h
MGC-803 = experiment: Antiproliferative activity against human MGC-803 cells assessed as cell growth inhibition measured after 48 hrs by CCK8 assay; conditions: MGC-803, 48 h
KYSE-450 = experiment: Antiproliferative activity against human KYSE-450 cells assessed as cell growth inhibition measured after 48 hrs by CCK8 assay; conditions: KYSE-450, 48 h

SMILES | IC50 (HCT-116) [µM] | IC50 (MGC-803) [µM] | IC50 (KYSE-450) [µM]
CCN1CCN(C(=S)SCC(=O)N(Cc2ccc(OC)c(O)c2)c2cc(OC)c(OC)c(OC)c2)CC1 | 0.53 | 0.38 | 0.32
COc1ccc(CN(C(=O)CSC(=S)N2CCN(C(=O)OC(C)(C)C)CC2)c2ccc(C)cc2)cc1 | > 20 | > 20 | > 20
CCN1CCN(CC(=O)N(Cc2ccc(OC)cc2)c2cc(OC)c(OC)c(OC)c2)CC1 | > 20 | > 20 | 16.1
COc1cc(N(Cc2ccc(Cl)cc2)C(=O)CSC(=S)N2CCN(C(=O)OC(C)(C)C)CC2)cc(OC)c1OC | 8.49 | 12.9 | 11.9
COc1ccc(CN(C(=O)CSC(=S)N2CCCC2)c2cc(OC)c(OC)c(OC)c2)cc1 | 4.97 | > 20 | 13.8
COc1ccc(CN(C(=O)CSC(=S)N2CCN(C)CC2)c2cc(OC)c(OC)c(OC)c2)cc1O | 0.81 | 0.86 | 0.76
COc1ccc(CN(C(=O)CSC(=S)N2CCc3cc(Br)ccc32)c2cc(OC)c(OC)c(OC)c2)cc1 | 8.06 | > 20 | > 20
COc1ccc(CN(C(=O)CSC(=S)N2CCN(C(=O)OC(C)(C)C)CC2)c2ccc(Cl)cc2)cc1 | > 20 | > 20 | > 20
COc1cc(N(Cc2ccc(Br)cc2)C(=O)CSC(=S)N2CCN(C(=O)OC(C)(C)C)CC2)cc(OC)c1OC | 11.4 | 12.4 | 10.7
COc1ccc(CN(C(=O)CSC(=S)N2CCCc3cc(C)ccc32)c2cc(OC)c(OC)c(OC)c2)cc1 | 5.23 | 6.49 | 5.21
COc1ccc(CN(C(=O)CSC(=S)N2CCN(C(C)=O)CC2)c2cc(OC)c(OC)c(OC)c2)cc1O | 0.78 | 0.31 | 0.21
COc1ccc(CN(C(=O)CSC(=S)N2CCN(C(=O)OC(C)(C)C)CC2)c2cc(OC)c(OC)c(OC)c2)cc1[N+](=O)[O-] | 0.98 | 0.88 | 0.81
COc1ccc(CN(C(=O)CSC(=S)N2CCN(C(=O)OC(C)(C)C)CC2)c2cc(OC)c(OC)c(OC)c2)cc1N=[N+]=[N-] | 0.78 | 0.81 | 0.84
COc1ccc(CN(C(=O)CN2CCOCC2)c2cc(OC)c(OC)c(OC)c2)cc1 | > 20 | 16.9 | 18.9
COc1ccc(CN(C(=O)CSC(=S)N2CCN(C(=O)OC(C)(C)C)CC2)c2ccc(Br)cc2)cc1 | > 20 | > 20 | > 20
COc1ccc(CN(C(=O)CSC(=S)N2CCN(C(=O)OC(C)(C)C)CC2)c2ccccc2)cc1 | > 20 | > 20 | > 20
COc1ccc(CN(C(=O)CSC(=S)N2CCN(C(=O)OC(C)(C)C)CC2)c2cc(OC)c(OC)c(OC)c2)cc1 | 0.62 | 0.31 | 0.25
COc1ccc(CN(C(=O)CSC(=S)N2CCN(C(=O)OC(C)(C)C)CC2)c2cc(OC)c(OC)c(OC)c2)cc1OC | > 20 | > 20 | > 20
COc1ccc(CN(C(=O)CSC(=S)N2CCN(C(=O)OC(C)(C)C)CC2)c2cc(OC)c(OC)c(OC)c2)cc1C | > 20 | > 20 | > 20

SMILES | IC50 (HCT-116) [µM] | IC50 (MGC-803) [µM] | IC50 (KYSE-450) [µM]
COc1ccc(CN(C(=O)CSC(=S)N2CCOCC2)c2cc(OC)c(OC)c(OC)c2)cc1 | 4.13 | 2.37 | 7.22
CCN1CCN(C(=S)SCC(=O)N(Cc2ccc(OC)cc2)c2cc(OC)c(OC)c(OC)c2)CC1 | 7.7 | 9.89 | 3.07
COc1ccc(CN(C(=O)CSC(=S)N2CCCc3cc(OC)ccc32)c2cc(OC)c(OC)c(OC)c2)cc1 | > 20 | 8.21 | 5.53
COc1cc(N(Cc2ccc(C)cc2)C(=O)CSC(=S)N2CCN(C(=O)OC(C)(C)C)CC2)cc(OC)c1OC | > 20 | 16.7 | > 20
COc1ccc(CN(C(=O)CSC(=S)N2CCc3cc(OC)ccc32)c2cc(OC)c(OC)c(OC)c2)cc1 | 9.81 | 11.7 | 10.2
COc1ccc(CN(C(=O)CSC(=S)N2CCN(C)CC2)c2cc(OC)c(OC)c(OC)c2)cc1 | 2.64 | 1.28 | 1.25
COc1ccc(CN(C(=O)CSC(=S)N2CCN(C(=O)OC(C)(C)C)CC2)c2cc(OC)c(OC)c(OC)c2)cc1F | 8.21 | 4.87 | 2.41
COc1ccc(CN(C(=O)CSc2nc3ccccc3o2)c2cc(OC)c(OC)c(OC)c2)cc1 | 3.28 | – | 0.84
COc1ccc(CN(C(=O)CSC(=S)N2CCN(Cc3ccc(C(C)(C)C)cc3)CC2)c2cc(OC)c(OC)c(OC)c2)cc1 | 6.89 | 5.39 | 2.14
COc1ccc(CN(C(=O)CN2CCN(C(C)=O)CC2)c2cc(OC)c(OC)c(OC)c2)cc1 | > 20 | 12.8 | 10.8
COc1cc2c(c(OC)c1OC)-c1ccc(OC)c(=O)cc1[C@@H](NC(C)=O)CC2 [COLCHICINE] | – | 0.09 | 0.22
COc1ccc(CN(C(=O)CSC(=S)N2CCN(C(=O)OC(C)(C)C)CC2)c2ccc(OC)cc2)cc1 | > 20 | > 20 | > 20
COc1ccc(CN(C(=O)CSC(=S)N2CCN(C(=O)OC(C)(C)C)CC2)c2cc(OC)c(OC)c(OC)c2)cc1Br | 9.71 | 3.71 | 1.85
COc1cc(NC(=O)CSC(=S)N2CCN(C(=O)OC(C)(C)C)CC2)c(Cc2ccccc2)c(OC)c1OC | 16 | > 20 | > 20
COc1ccc(CN(C(=O)CN2CCN(C(=O)OC(C)(C)C)CC2)c2cc(OC)c(OC)c(OC)c2)cc1 | 18.1 | 9.5 | 8.17
COc1ccc(CN(C(=O)CSC(=S)N2CCN(C(=O)OC(C)(C)C)CC2)c2cc(OC)c(OC)c(OC)c2)cc1N | 0.352 | 0.184 | 0.208
COc1ccc(CN(C(=O)CSC(=S)N2CCN(C(C)=O)CC2)c2cc(OC)c(OC)c(OC)c2)cc1 | 1.37 | 0.48 | 0.37
COc1ccc(CN(C(=O)CSC(=S)N2CCc3ccccc3C2)c2cc(OC)c(OC)c(OC)c2)cc1 | 15.9 | 5.94 | > 20
COc1ccc(CN(C(=O)CSC(=S)N2CCc3ccccc32)c2cc(OC)c(OC)c(OC)c2)cc1 | 7.71 | 8.41 | 6.94
